{
  "source": "patent US20170128557A1",
  "about": "“Dendritic Cell Therapeutic Agent and Immunotherapeutic Agent Comprising Peptide Derived from Telomerase, and Therapeutic Methods Using the Same” (GemVax & KAEL Co., Ltd., priority 2015, published 2017)",
  "tested_on": "T cells in the peripheral blood",
  "experiment": "ELISPOT assay (IFN-γ / IL-4) on patients' peripheral blood T cells before/after dendritic cell immunotherapy",
  "format": "cell-based, human",
  "description": "As described above, dendritic cells activate CTL to attack target cells to treat a disease. Accordingly, dendritic cells activated by peptides including PEP1 were prepared, administered to each individual, and subjected to an ELISPOT assay to observe an increase in T cell responses to each peptide in each individual.\nThe experiments were performed on four patients with different diseases (cancers), and a dendritic cell immunotherapy method is as follows. Mononuclear cells were collected from peripheral blood extracted from each patient and cultured. Immature dendritic cells differentiated in the mononuclear cell culture were subjected to antigen activation with tumor-associated antigen peptides including PEP1. When the dendritic cells became mature, antigen activation was carried out once more with the same peptides. The activated mature dendritic cells were separated and then administered to each patient.\nMore specifically, dendritic cells and NK cells used in treatment were prepared by proliferating mononuclear cells obtained from 25 ml of whole blood taken from a patient every two weeks, and differentiating the proliferated mononuclear cells into dendritic cells. That is, in this example, CD14+ mononuclear cells obtained from a peripheral blood vessel of the patient were cultured with IL-4 and GM-CFS for 6 days and proliferated, and then treated with a Streptococcus agent OK-432 for maturation. In addition, in the preparation of the dendritic cells, the dendritic cells were activated by WT1, MUC1 and other antigens.\nAccording to cancer characteristics of a patient undergoing a gene test, an antigen test and a tumor marker test, a substance having a similar function to a tumor-associated antigen (a cancer cell lysate, tumor-specific protein, or tumor-associated peptide) was added to the dendritic cells to enhance a cancer-recognizing ability of the dendritic cells, which is an activation process. For dendritic cell activation, as tumor-associated antigens that can be used in the present invention but not limited thereto, WT1, MUC-1, CA125, MAGE-A3, CEA, NY-ESO1, survinin, Her2, and the telomerase-derived peptide PEP1 were used. As an activation method but not limited to a specific example, the dendritic cells may be cultured with such a tumor-associated antigen. The activation may be performed on immature dendritic cells or mature dendritic cells. In one specific example of the present invention, mononuclear cells were collected from a patient's peripheral blood and cultured, immature dendritic cells differentiated from the mononuclear cells were treated with a peptide to activate and thus differentiated into mature dendritic cells, and then the mature dendritic cells were treated with the same peptide for activation. An amount of the antigen used in the activation may be the same as generally used in the art as follows but is not limited thereto. For example, PEP1 may be used in an amount of 1 to 1000 μg/ml along with the antigens, and 20 μg/ml of WT1, 20 μg/ml of MUC1, 20 μg/ml of CEA, 500 μg/ml of CA125, and 20 μg/ml of HER2 may be used. The dendritic cells (1×10^7) prepared as described above were intradermally injected six times every 14 days.\nThe following experiment was performed to examine whether dendritic cell immunotherapy leads to an increase in T cell responses to peptides activated by an antigen. A buffy coat layer was separated from the peripheral blood of a patient subjected to the dendritic cell immunotherapy using a ficoll method (centrifugation using a ficoll), and mononuclear cells were obtained therefrom. Following 3 to 4-day culture, an ELISPOT assay was carried out. The ELISPOT assay was performed according to a protocol of an ImmunoSpot kit (Celluluar Technology Limited, USA). […] As peptide stimulants (antigen peptides), Peptivator WT1, Peptivator NY-ESO1 (Miltenyi Biotec., Germany), MUC-1, MAGE-A3, Survivin and PEP1 were added to each well at an optimum concentration and cultured for 48 hours. […]",
  "data": [
    {"sequence": "EARPALLTSRLRFIPK (homo sapiens) [PEP1, telomerase-derived peptide composed of 16 amino acids, position [611-626] on telomerase]", "values": [
      {"measurement": "Number of spots, IL-4", "setting": "Patient 1 (stomach cancer), 7 days after six times of dendritic cell vaccine administration, negative control 17", "result": 335},
      {"measurement": "Number of spots, IFN-γ", "setting": "Patient 1 (stomach cancer), 7 days after six times of dendritic cell vaccine administration, negative control 27", "result": 567},
      {"measurement": "Number of spots, IL-4", "setting": "Patient 1 (stomach cancer), before dendritic cell vaccine administration, negative control 1", "result": 2},
      {"measurement": "Number of spots, IFN-γ", "setting": "Patient 1 (stomach cancer), before dendritic cell vaccine administration, negative control 5", "result": 3},
      {"measurement": "ELISPOT spots compared with the negative control", "setting": "Patient 1, after the treatment (dendritic cell vaccine six times)", "result": "increased"},
      {"measurement": "Number of spots, IL-4", "setting": "Patient 2 (lung cancer), 44 days after six times of dendritic cell vaccine administration, negative control 2", "result": 410},
      {"measurement": "Number of spots, IFN-γ", "setting": "Patient 2 (lung cancer), 44 days after six times of dendritic cell vaccine administration, negative control 153, *exact number was not obtained", "result": "~332.5*"},
      {"measurement": "Number of spots, IL-4", "setting": "Patient 2 (lung cancer), before dendritic cell vaccine administration, negative control 0", "result": 9},
      {"measurement": "Number of spots, IFN-γ", "setting": "Patient 2 (lung cancer), before dendritic cell vaccine administration, negative control 1", "result": 0},
      {"measurement": "ELISPOT spots compared with the negative control", "setting": "Patient 2, after the treatment (dendritic cell vaccine 6 times)", "result": "increased"},
      {"measurement": "Number of spots, IL-4", "setting": "Patient 3 (pancreatic cancer), 11 days after six times of dendritic cell vaccine administration, negative control 2", "result": 434},
      {"measurement": "Number of spots, IFN-γ", "setting": "Patient 3 (pancreatic cancer), 11 days after six times of dendritic cell vaccine administration, negative control 14", "result": 632},
      {"measurement": "Number of spots, IFN-γ", "setting": "Patient 3 (pancreatic cancer), before dendritic cell vaccine administration, negative control 3", "result": 1},
      {"measurement": "Number of spots, IL-4", "setting": "Patient 3 (pancreatic cancer), before dendritic cell vaccine administration, negative control 8", "result": 4},
      {"measurement": "ELISPOT spots compared with the negative control", "setting": "Patient 3, after the treatment (dendritic cell vaccine 6 times)", "result": "increased"},
      {"measurement": "Number of spots, IFN-γ", "setting": "Patient 4 (breast cancer), 35 days after six times of dendritic cell vaccine administration, 2×10^5 cells/well, negative control 12", "result": 258},
      {"measurement": "Number of spots, IL-4", "setting": "Patient 4 (breast cancer), 35 days after six times of dendritic cell vaccine administration, 2×10^5 cells/well, negative control 20", "result": 353},
      {"measurement": "Number of spots, IFN-γ", "setting": "Patient 4 (breast cancer), before dendritic cell vaccine administration, 2×10^5 cells/well, negative control 13", "result": 22},
      {"measurement": "Number of spots, IL-4", "setting": "Patient 4 (breast cancer), before dendritic cell vaccine administration, 2×10^5 cells/well, negative control 17", "result": 3},
      {"measurement": "ELISPOT spots compared with the negative control", "setting": "Patient 4, after the treatment (dendritic cell vaccine 6 times)", "result": "increased"}
    ]}
  ]
}
